The results in this text go back to ChEMBL document CHEMBL1833871, “3D QSAR and docking study of flavone derivatives as potent inhibitors of influenza H1N1 virus neuraminidase” (Bioorg Med Chem Lett, 2011).

The target in the test is Neuraminidase (Influenza A virus (A/Puerto Rico/8/1934(H1N1)), UniProt P03468). Nature of the test: Inhibition of influenza A virus A/PR/8/34(H1N1) neuraminidase assessed as fluorescent product using MUNANA as substrate after 60 mins by fluorescence analysis.
Sequence of Neuraminidase (Influenza A virus (A/Puerto Rico/8/1934(H1N1)), UniProt P03468) (P03468 whole entry): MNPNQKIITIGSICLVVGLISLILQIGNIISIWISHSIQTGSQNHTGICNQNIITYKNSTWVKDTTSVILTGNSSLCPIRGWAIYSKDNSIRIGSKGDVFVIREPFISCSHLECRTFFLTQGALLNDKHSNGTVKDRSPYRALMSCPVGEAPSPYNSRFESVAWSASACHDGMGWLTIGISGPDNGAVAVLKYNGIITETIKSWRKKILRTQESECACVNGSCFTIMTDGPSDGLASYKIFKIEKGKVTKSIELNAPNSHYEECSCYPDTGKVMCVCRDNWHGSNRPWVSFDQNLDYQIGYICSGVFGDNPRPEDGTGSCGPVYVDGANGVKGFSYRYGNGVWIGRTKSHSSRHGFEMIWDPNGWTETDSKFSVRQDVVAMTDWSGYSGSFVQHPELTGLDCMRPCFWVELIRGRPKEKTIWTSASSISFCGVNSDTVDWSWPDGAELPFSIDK
As a reminder, the IC50 is the concentration needed to halve the response being measured. For `O=c1cc(-c2ccccc2)oc2c(CN3CCC(O)CC3)c(O)c(O)c(O)c12`, the IC50 worked out at 91.5 µM.
The same measure for `CC1CCN(Cc2c(O)cc(O)c3c(=O)cc(-c4ccc(O)cc4)oc23)CC1`: 164 µM.
Then `O=c1cc(-c2ccc(O)cc2)oc2c(CN3CCC(CO)CC3)c(O)cc(O)c12`, with 40.9 µM.
The same measure for `O=c1cc(-c2ccccc2)oc2c(CN3CCCC3)c(O)cc(O)c12`: 182 µM; for `C[C@@H]1COC[C@H](C)N1Cc1c(O)cc(O)c2c(=O)cc(-c3ccc(O)c(O)c3)oc12`: 43.5 µM.
With `O=c1cc(-c2ccc(O)cc2)oc2c(CN3CCOCC3)c(O)cc(O)c12`, the IC50 worked out at 50.5 µM.
`O=c1cc(-c2ccccc2)oc2c(CN3CCC(CO)CC3)c(O)cc(O)c12`: the IC50 worked out at 83.7 µM.
Then `CN1CCN(Cc2c(O)cc(O)c3c(=O)cc(-c4ccc(O)c(O)c4)oc23)CC1`, with 53.8 µM.
For `O=c1cc(-c2ccccc2)oc2c(CN3CCC(O)CC3)c(O)cc(O)c12`, the IC50 was 295 µM.
The same measure for `CC1CCCCN1Cc1c(O)c(O)c(O)c2c(=O)cc(-c3ccccc3)oc12` (stereo not given): 99.7 µM.
As to `O=c1cc(-c2ccc(O)c(O)c2)oc2c(CN3CCCCC3)c(O)cc(O)c12`, the IC50 was found to be 62.9 µM.
The same measure for `O=c1cc(-c2ccc(O)c(O)c2)oc2c(CN3CCCC(O)C3)c(O)cc(O)c12` (stereo not given): 63.6 µM; for `O=c1cc(-c2ccc(O)cc2)oc2c(CN3CCCC(O)C3)c(O)cc(O)c12` (stereo not given): 45.3 µM; for `O=c1cc(-c2ccccc2)oc2c(CN3CCCC3)c(O)c(O)c(O)c12`: 107 µM.
With `CN1CCN(Cc2c(O)cc(O)c3c(=O)cc(-c4ccc(O)cc4)oc23)CC1`, the 50% inhibitory concentration (IC50) turned out to be 148 µM.
The same measure for `O=c1cc(-c2ccc(O)cc2)oc2c(CN3[C@H](O)COC[C@@H]3O)c(O)cc(O)c12`: 64 µM; for `CC1CCCCN1Cc1c(O)cc(O)c2c(=O)cc(-c3ccc(O)c(O)c3)oc12` (stereo not given): 161 µM.
The same measure for `O=c1cc(-c2ccccc2)oc2c(CN3CCOCC3)c(O)cc(O)c12`: 448 µM.
Then `CN1CCN(Cc2c(O)cc(O)c3c(=O)cc(-c4ccccc4)oc23)CC1`, with 431 µM; and `CC1CCCN(Cc2c(O)cc(O)c3c(=O)cc(-c4ccc(O)cc4)oc23)C1` (stereo not given), with 52.5 µM; and `O=c1cc(-c2ccc(O)cc2)oc2c(CN3CCCC3)c(O)cc(O)c12`, with 44.5 µM.
In the case of `O=c1cc(-c2ccccc2)oc2c(CN3CCCC(O)C3)c(O)c(O)c(O)c12` (stereo not given), the half-inhibitory concentration (IC50) turned out to be 68.2 µM.
On to `O=c1cc(-c2ccc(O)cc2)oc2c(CN3CCC(O)CC3)c(O)cc(O)c12`, for which the IC50 was 168 µM.
Then `O=c1cc(-c2ccc(O)cc2)oc2c(CN3CCC[C@H]3CO)c(O)cc(O)c12`, with 49.7 µM.
The same measure for `O=c1cc(-c2ccc(O)cc2)oc2c(CN3CCN(Cc4ccccc4)CC3)c(O)cc(O)c12`: 48.5 µM; for `O=c1cc(-c2ccccc2)oc2c(CN3CCN(CCO)CC3)c(O)c(O)c(O)c12`: 276 µM.
With `O=c1cc(-c2ccccc2)oc2c(CN3CCCCC3)c(O)c(O)c(O)c12`, the IC50 was 104 µM.
The same measure for `CN1CCN(Cc2c(O)c(O)c(O)c3c(=O)cc(-c4ccccc4)oc23)CC1`: 302 µM.
`O=c1cc(-c2ccccc2)oc2c(CN3CCCC(O)C3)c(O)cc(O)c12` (stereo not given): the half-maximal inhibitory concentration (IC50) was 259 µM.
Then `O=c1cc(-c2ccccc2)oc2c(CN3CCC(CO)CC3)c(O)c(O)c(O)c12`, with 470 µM.
Regarding `O=c1cc(-c2ccc(O)c(O)c2)oc2c(CN3CCOCC3)c(O)cc(O)c12`, the IC50 is 81.9 µM.
Regarding `C[C@@H]1COC[C@H](C)N1Cc1c(O)c(O)c(O)c2c(=O)cc(-c3ccccc3)oc12`, the IC50 amounted to 591 µM.
Then `O=c1cc(-c2ccc(O)c(O)c2)oc2c(CN3CCC(CO)CC3)c(O)cc(O)c12`, with 64.2 µM; and `O=c1cc(-c2ccccc2)oc2c(CN3CCN(CCO)CC3)c(O)cc(O)c12`, with 135 µM.
Take `O=c1cc(-c2ccc(O)cc2)oc2c(CN3CCC(Cc4ccccc4)CC3)c(O)cc(O)c12`: the IC50 came out at 46.1 µM.
